The values below come from patent publication US20240122880A1, “COMPOSITIONS FOR TREATING HYPERCHOLESTEROLEMIA AND PREPARATION METHODS THEREOF” (UNIVERSITY OF SAN AGUSTIN, priority 2020, published 2024).

In assay [1] the test system is lipase. The assay is described as follows: Lipase inhibition assay (glycerol generated from cleavage of triglycerides, Sigma MAK046 kit). It counts as biochemical. The settings on record: relative to untreated lipase enzyme.
Description: The lipase inhibition activities of the pineapple flesh, core, and stem crude extracts were determined by measuring the glycerol generated from the cleavage of triglycerides. The storage and preparation instruction were done according to the stated protocol of MAK, 046, Sigma Aldrich®, St. Louis, MO, USA.
Twenty μL of 750 mg/mL flesh, core, and stem at 100 mg/mL final concentration crude extracts were added to their respective wells.
Two μL of the lipase and Orlistat™ at 100 mg/mL and 10 mg/mL, respectively, were added to wells to serve as negative and positive control. All standards and samples were adjusted to 50 μL by adding Lipase Assay Buffer. A 100-μL reaction mix consisting of 93 μL Lipase Assay Buffer, 2 μL peroxidase substrate, 2 μL enzyme mix and 3 μL of lipase substrate was added to each well.
Absorbance was read at 570 nm every five minutes using CLARIOStar™ microplate reader at 37° C. incubation at slow kinetics mode for two hours. The percent lipase inhibition was calculated relative to the untreated lipase enzyme.
In assay [2] the target is T1, HMG-CoA reductase (Homo sapiens, UniProt P04035).
T1 construct: by the catalytic subunit of 3-hydroxy-3-methylglutaryl CoA reductase; purchased Sigma Aldrich CS1090
T1 sequence (P04035 340-888 limits assumed): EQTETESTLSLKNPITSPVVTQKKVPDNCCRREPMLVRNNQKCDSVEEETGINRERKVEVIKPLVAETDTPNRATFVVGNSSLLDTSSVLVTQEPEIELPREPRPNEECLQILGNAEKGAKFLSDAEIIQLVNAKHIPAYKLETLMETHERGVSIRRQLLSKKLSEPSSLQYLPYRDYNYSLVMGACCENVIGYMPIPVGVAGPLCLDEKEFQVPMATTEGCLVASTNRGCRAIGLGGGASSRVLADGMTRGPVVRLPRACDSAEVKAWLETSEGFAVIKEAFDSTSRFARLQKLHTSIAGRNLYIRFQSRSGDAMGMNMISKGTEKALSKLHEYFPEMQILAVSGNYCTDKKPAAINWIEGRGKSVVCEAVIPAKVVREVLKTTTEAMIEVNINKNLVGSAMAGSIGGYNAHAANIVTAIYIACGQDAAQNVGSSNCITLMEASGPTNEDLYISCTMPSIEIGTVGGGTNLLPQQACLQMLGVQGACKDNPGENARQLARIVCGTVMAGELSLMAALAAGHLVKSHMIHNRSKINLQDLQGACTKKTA
The assay is described as follows: HMG-CoA reductase inhibition assay (NADPH oxidation at 340 nm, Sigma CS1090 kit). The following applies: sample concentration 2.1 μg/mL. It counts as biochemical. The protocol:
The assay was based on the spectrophotometric measurement of the decrease in absorbance at 340 nm, which represents the oxidation of Nicotinamide Adenine Dinucleotide Phosphate (NADPH) by the catalytic subunit of 3-hydroxy-3-methylglutaryl CoA reductase in the presence of substrate HMG-CoA. All storage and reagent preparations were performed according to the protocol (CS1090, Sigma Aldrich®, St. Louis, MO, USA).
Assay buffer (1×) in the HMG-CoA assay kit was added to all samples. 184 μL for the blank, 182 μL for the activity control, 181 μL for the inhibition control and samples according to the manufacturer's instructions in the Sigma-Aldrich® CS1090 assay kit.
Pravastatin™ (2.1 μg/mL) positive control, 20 μL of […], core (100 mg/mL final concentration) and 20 μL of 50 mg/mL stem (5 mg/mL final concentration) crude extracts were added to its assay buffers. Lower reaction concentration of extracts (20 μL of 250 mg/mL to obtain 25 mg/mL final concentration of flesh and core crude extracts) was also tested against HMG-CoA reductase enzyme.
Four μL of NADPH and 12 μL HMG-CoA substrate were also added to the treatments. The HMG-CoA reductase enzyme (2 μL) was kept on ice until added to the activity, inhibition controls, and samples.
The absorbance at 340 nm was monitored for every 20 seconds for up to 10 minutes using CLARIOStar™ plate reader. […]

As for `CCCCCCCCCCC[C@@H](C[C@@H]1OC(=O)[C@H]1CCCCCC)OC(=O)[C@H](CC(C)C)NC=O` [Orlistat ™, Orlistat], the Lipase inhibition activity in assay [1] (sample concentration 10 mg/mL) worked out at 100±0.05%; in assay [1] (sample concentration 100 mg/mL), 100 ± 0.05%. For `CC[C@H](C)C(=O)O[C@H]1C[C@H](O)C=C2C=C[C@H](C)[C@H](CC[C@@H](O)C[C@@H](O)CC(=O)O)[C@H]21` [Pravstatin ™, Pravastatin], the “HMG-COA reductase inhibition activity” value in assay [2] is listed as 82%.
